Assay results: article PMC12245127, “Cancer Specific CAIX‐Targeting Supramolecular Lysosome‐Targeting Chimeras (Supra‐LYTAC) for Targeted Protein Degradation” (Advanced Science, 2025)

Assays:
Format in all cases: cell-based
[1] = target: T1, PD‐L1 (Homo sapiens, UniProt Q9NZQ7); assay: Western blot analysis for PD-L1 degradation, HeLa; conditions: 24 h, 1:1 ratio (100 μM each)
T1 construct: endogenous in cells; host or cells: HeLa
Method: (§1) We next evaluated PD‐L1 degradation using Western blot (WB) analysis. […] Initially, we verified BMS‐conjugated peptides were non‐toxic by MTT assay (Figure S37, Supporting Information). We then assessed PD‐L1 degradation in HeLa cells after 24‐h treatment with 100 µM Py‐FFK‐Az and varying concentrations of Py‐FFK‐BMS. […] To further assess the effect for Py‐FFK‐Az, we conducted WB analysis with 100 µM Py‐FFK‐BMS at varying concentration for Py‐FFK‐Az. […] PD‐L1 degradation was inhibited by co‐treatment with CAIX inhibitor, confirming the role of CAIX‐mediated endocytosis in lysosomal uptake (Figure S39, Supporting Information). To further validate lysosome‐dependent protein degradation, we conducted WB analysis with chloroquine, a lysosomal inhibitor. […] Furthermore, PD‐L1 fluorescence was restored when chloroquine was co‐administered with the 1:1 Py‐FFK‐Az:Py‐FFK‐BMS mixture, confirming lysosomal involvement in PD‐L1 degradation. […]
(§2) μM Py-FFK-Az and 5μM Py-FFK-Biotin was co-incubated with 400 nM streptavidin-FITC. […]
(§3) as counterstaining agent. IF signals were analyzed using confocal laser scanning microscopy […]
(§4) S.1.22. […] Tumor growth was monitored using the digital caliper. We calculated the tumor volume using the formula [volume = (tumor length) × (tumor width)2/2]. […] The tumor size and body weight were measured and […]
(§5) S.1.23. […] All the data are expressed as mean ± standard deviation (SD). […]

[2] = target: T1, PD‐L1; assay: Immunofluorescence analysis of PD-L1, HeLa; conditions: 24 h
Method: as §1, §2, §3, §4, §5

[3] = system: HeLa; assay: Endocytosis pathway analysis with inhibitors; conditions: inhibitor pre-incubated 30 min (400 mM sucrose, 30 μM EIPA), then 100 μM Py-FFK-Az, 5 μM Py-FFK-Biotin, 400 nM streptavidin-FITC 3 h, flow cytometry, n = 3
Method: We next examined the cellular localization of Supra‐LYTAC using CLSM. […] To understand the lysosomal trafficking mechanism, we conducted inhibitor studies. […]
fluorometer (F-7000, Hitachi). The ratio for I1 band and I3 band was plotted to obtain CAC […]
S.1.12. Transmission electron microscopy study. To confirm the peptide self-assembly nanostructures, 50 μM of peptide solution in water was prepared. Then, 8 μL was dropped onto a copper grid. After the droplet is fully dried, it was repeated once more. After that, negative staining was achieved using 2 wt% uranyl acetate solution for 10 min in RT. After washing using DI water, the self-assembly morphology was visualized using JEM-1400 by JEOL and […]
To visualize peptide-protein nanocomplex, streptavidin stock solution was added into the solution consisting of 50 μM peptide solution (mixture of Py-FFK-Az and Py-FFK-Biotin in 20:1 ratio) to obtain 400 nM and 10 μM solutions. Then, TEM sample was prepared with the same protocol of peptide self-assembly visualization.
S.1.13. Circular dichroism spectroscopy. 100 μM peptide solution was initially prepared.
The solution was transferred into quartz cell with 1 mm path length (Hellma), and CD spectrum was recorded using CD spectrometer (J-815, JASCO) under the flow of nitrogen.
S.1.14. FT-IR spectroscopy. 1 mM peptide solution was prepared for FT-IR spectroscopy.
The solution was measured using L1600300 Spectrum TWO LiTa FT-IR spectrometer by […]
S.1.15. Cell culture. HeLa, 4T1, and NIH/3T3 were supplied from Korean Cell Line Bank. […]
After growing for 24 h, Py-FFK-Az, Py-FFK-Biotin, Py-GGK-Az, Py-GGK-Biotin was treated with different concentrations. […] After 4 h incubation, MTT formazan was solubilized by SDS solution, and monitored using SpectraMax M5e Multi Mode Microplate Reader by Molecular Devices.
S.1.17. […] After that, the cells were washed and analyzed using FACSverse (Becton Dickinson And Company).
S.1.18. […] After that, the cells were washed and analyzed using confocal laser scanning microscopy (LSM780 and 880 by ZEISS). […]

T1 sequence (Q9NZQ7 19-290): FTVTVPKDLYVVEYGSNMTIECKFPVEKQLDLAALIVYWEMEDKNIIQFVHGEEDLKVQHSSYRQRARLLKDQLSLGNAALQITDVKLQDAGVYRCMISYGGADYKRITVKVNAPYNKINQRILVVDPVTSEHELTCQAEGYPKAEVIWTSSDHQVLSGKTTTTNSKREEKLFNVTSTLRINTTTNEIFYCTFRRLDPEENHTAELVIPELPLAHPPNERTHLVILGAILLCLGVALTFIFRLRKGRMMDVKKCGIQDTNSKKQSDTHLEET

| Compound | effect of inhibitor co-treatment on PD-L1 degradation by Py-FFK-Az and Py-FFK-BMS (WB) [1] | PD-L1 immunofluorescence on chloroquine co-administration with 1:1 Py-FFK-Az:Py-FFK-BMS [2] | effect of inhibitor on POI uptake by Supra-LYTAC [3] |
| --- | --- | --- | --- |
| CCN(CC)CCCC(C)Nc1ccnc2cc(Cl)ccc12 (stereo not drawn) [chloroquine] | significantly reduced PD‐L1 degradation | restored |  |
| CC(=O)Nc1nnc(S(N)(=O)=O)s1 [acetazolamide] | inhibited |  | significantly reduced |
| OC[C@H]1O[C@@](CO)(O[C@H]2O[C@H](CO)[C@@H](O)[C@H](O)[C@H]2O)[C@@H](O)[C@@H]1O [sucrose] |  |  | substantially reduced |
| CCN(c1nc(N)c(C(=O)NC(=N)N)nc1Cl)C(C)C [EIPA] |  |  | no effect |
